Results on 1 compound are retold here after paper PMC10383864, “Novel 2-Sulfanylquinazolin-4(3H)-one Derivatives as Multi-Kinase Inhibitors and Apoptosis Inducers: A Synthesis, Biological Evaluation, and Molecular Docking Study” (Molecules, 2023).

The target of one assay is T1, HER2 (Homo sapiens, UniProt P04626).
T1 construct: purchased
In words: Kinase inhibition, ELISA kit. Format: biochemical. Conditions: mean ± SD of three experiments. As to the method:
(§1) The corresponding kinase inhibitory kit assays were used, and the results are expressed as IC50 values (µM), as presented in Table 2.
(§2) Afterward, the plate was incubated at room temperature for 2.5 h and then washed with PBS. A total of 100 μL of the prepared biotin antibody was added and incubated at room temperature for an additional 1 h, and then 100 μL of streptavidin solution was added and incubated at room temperature for another 45 min. After washing, 100 μL of TMB substrate reagent was added and incubated for 30 min at room temperature. Finally, about 50 μL of the stop solution was added and then read at 450 nm immediately. A standard curve was drawn, with concentrations on the X-axis and absorbance on the Y-axis.

Another assay concerns the target T2, CDK2 (Homo sapiens, UniProt P24941).
T2 construct: purchased
In words: Kinase inhibition, ELISA kit. Format: biochemical. As to conditions: mean ± SD of three experiments. The procedure:
as §1, §2

A further assay concerns the target T3, EGFR (Homo sapiens, UniProt P00533).
T3 construct: purchased
In words: Kinase inhibition, ELISA kit. The class given is biochemical. As to conditions: mean ± SD of three experiments. The procedure: as §2, with “The corresponding kinase inhibitory kit assays were used, and the results are expressed as IC50 values (µM), as presented in Table 2. […] Afterward,” for “Afterward,”
(In general: ELISA stands for enzyme-linked immunosorbent assay.)

In assay [1] the test system is HepG2, MCF-7, MDA-231, and HeLa. In words: MTT cytotoxicity assay, range over the tested cancer cell lines. Format: cell-based. As to conditions: Homo sapiens, range over HepG2, MCF-7, MDA-231 and HeLa, read-out: IC50 range against all tested cancer cell lines. As to the method: (§3) In addition, the safety profile of the 2-sulfanylquinazolin-4(3H)-one derivatives was evaluated against normal human cells (WI38) […]. The standard MTT (3-(4,5-dimethylthiazol-2-yl)-2,5 diphenyl tetrazolium bromide) colorimetric assay protocol was used, as described by Mosmann. […] The results were expressed as growth inhibitory concentration (IC50) values.
(§4) The cell lines were obtained from ATCC (American Type Culture Collection). […] After incubation, the cells were treated with different concentrations of the synthesized compounds and incubated for 24 h. Afterward, the cells were washed with PBS, and 20 µL of MTT solution at 5 mg/mL was added, all incubated for 4 h. The MTT solution was discarded, and 100 µL of dimethyl sulfoxide (DMSO) was added per well. […] The relative cell viability in percentage was calculated as (A570 of treated cells/A570 of untreated cells) × 100.
For orientation: Tetrazolium assays rely on reduction of a dye to a coloured formazan, in cell work by metabolically active cells.

The test system of a further assay is caspase-3. In words: RT-PCR of apoptosis-related genes in HepG2 cells. The class given is cell-based, human. As to conditions: HepG2 cells treated with 5d, control = 1, increase. The procedure: (§5) RT-PCR reactions were carried out to investigate the relative gene expression of apoptosis-related genes, including the proapoptotic genes Bax, caspases 3 and 9, and the anti-apoptotic Bcl2 gene. […] Therefore, it can be concluded that the induction of apoptosis in HepG2 cells upon treatment with 5d is associated with the upregulation of proapoptotic genes and the downregulation of anti-apoptotic genes.
(§6) The level of apoptotic markers caspase-3, caspase-9, Bax, and Bcl-2 was measured using BIORAD iScript TM One-Step RT-PCR kit with SYBR® Green. According to the manufacturer’s instructions, the kit was used in three subsequent steps.
(§7) mRNA isolation of up to 1 × 10^7 cells was carried out using an RNeasy extraction kit. Cells were disrupted in RNeasy Lysis Buffer (RLT buffer) and homogenized. Ethanol was then added to make a lysate and provoke the selective binding of RNA to the RNeasy membrane. The sample was then applied to the RNeasy mini spin column, where total RNA binds to the membrane while contaminants pass through. The RNA was then eluted in RNase-free water.
(§8) All the following reagents were mixed to make about 50 μL mixture: 2X SYBR® Green RT-PCR reaction mixture (25 μL), forward primer (10 μM; 1.5 μL), reverse primer (10 μM; 1.5 μL), nuclease-free H2O (11 μL), RNA template (1 pg to 100 ng total RNA; 10 μL) and iScript reverse transcriptase for One-Step RT-PCR (1 μL).
(§9) The whole reaction mixture was incubated in a real-time thermal detection system (Rotorgene) as follows: cDNA synthesis (10 min at 50 °C), iScript reverse transcriptase inactivation (5 min at 95 °C), PCR cycling and detection (30–45 cycles):10 s at 95 °C and 30 s at 55 °C to 60 °C (data collection step) and melt curve analysis: 1 min at 95 °C, 1 min at 55 °C and 10 s at 55 °C–95 °C (80 cycles, increasing each by 0.5 °C each cycle).

Another assay has as its system Bcl2. In words: RT-PCR of apoptosis-related genes in HepG2 cells. Format: cell-based, human. As to conditions: HepG2 cells treated with 5d, control = 1, downregulated. As to the method: as §5, §6, §7, §8, §9
In another assay the test system is Bax. In words: RT-PCR of apoptosis-related genes in HepG2 cells. The class given is cell-based, human. Conditions: HepG2 cells treated with 5d, control = 1, increase. As to the method: as §5, §6, §7, §8, §9
Another assay relates to caspase-9. In words: RT-PCR of apoptosis-related genes in HepG2 cells. Format: cell-based, human. Conditions: HepG2 cells treated with 5d, control = 1, increase. The procedure:
as §5, §6, §7, §8, §9

A further assay concerns MDA-MB-231 cells. In words: MTT cytotoxicity assay. Format: cell-based, human. As to conditions: Homo sapiens, MDA-MB-231, 24 h, MDA-MB-231, MTT, 24 h treatment, mean ± SD of three experiments; read-out: In Vitro Cytotoxicity IC50 MDA-MB-231. As to the method:
as §3, §4

The test system of a further assay is MCF-7 cells. In words: MTT cytotoxicity assay. Format: cell-based, human. As to conditions: Homo sapiens, MCF7, 24 h, MCF-7, MTT, 24 h treatment, mean ± SD of three experiments; read-out: In Vitro Cytotoxicity IC50 MCF-7. The procedure:
as §3, §4

The test system of the next assay is HepG2 cells. In words: MTT cytotoxicity assay. The class given is cell-based, human. Conditions: Homo sapiens, HepG2, 24 h, 24 h treatment, mean ± SD of three experiments, read-out: In Vitro Cytotoxicity IC50 HepG2. As to the method: as §3, §4
The next assay relates to HeLa cells. In words: MTT cytotoxicity assay. Format: cell-based, human. As to conditions: Homo sapiens, 24 h, 24 h treatment, mean ± SD of three experiments, read-out: In Vitro Cytotoxicity IC50 HeLa. As to the method: as §3, §4

T1 sequence (P04626 23-1255): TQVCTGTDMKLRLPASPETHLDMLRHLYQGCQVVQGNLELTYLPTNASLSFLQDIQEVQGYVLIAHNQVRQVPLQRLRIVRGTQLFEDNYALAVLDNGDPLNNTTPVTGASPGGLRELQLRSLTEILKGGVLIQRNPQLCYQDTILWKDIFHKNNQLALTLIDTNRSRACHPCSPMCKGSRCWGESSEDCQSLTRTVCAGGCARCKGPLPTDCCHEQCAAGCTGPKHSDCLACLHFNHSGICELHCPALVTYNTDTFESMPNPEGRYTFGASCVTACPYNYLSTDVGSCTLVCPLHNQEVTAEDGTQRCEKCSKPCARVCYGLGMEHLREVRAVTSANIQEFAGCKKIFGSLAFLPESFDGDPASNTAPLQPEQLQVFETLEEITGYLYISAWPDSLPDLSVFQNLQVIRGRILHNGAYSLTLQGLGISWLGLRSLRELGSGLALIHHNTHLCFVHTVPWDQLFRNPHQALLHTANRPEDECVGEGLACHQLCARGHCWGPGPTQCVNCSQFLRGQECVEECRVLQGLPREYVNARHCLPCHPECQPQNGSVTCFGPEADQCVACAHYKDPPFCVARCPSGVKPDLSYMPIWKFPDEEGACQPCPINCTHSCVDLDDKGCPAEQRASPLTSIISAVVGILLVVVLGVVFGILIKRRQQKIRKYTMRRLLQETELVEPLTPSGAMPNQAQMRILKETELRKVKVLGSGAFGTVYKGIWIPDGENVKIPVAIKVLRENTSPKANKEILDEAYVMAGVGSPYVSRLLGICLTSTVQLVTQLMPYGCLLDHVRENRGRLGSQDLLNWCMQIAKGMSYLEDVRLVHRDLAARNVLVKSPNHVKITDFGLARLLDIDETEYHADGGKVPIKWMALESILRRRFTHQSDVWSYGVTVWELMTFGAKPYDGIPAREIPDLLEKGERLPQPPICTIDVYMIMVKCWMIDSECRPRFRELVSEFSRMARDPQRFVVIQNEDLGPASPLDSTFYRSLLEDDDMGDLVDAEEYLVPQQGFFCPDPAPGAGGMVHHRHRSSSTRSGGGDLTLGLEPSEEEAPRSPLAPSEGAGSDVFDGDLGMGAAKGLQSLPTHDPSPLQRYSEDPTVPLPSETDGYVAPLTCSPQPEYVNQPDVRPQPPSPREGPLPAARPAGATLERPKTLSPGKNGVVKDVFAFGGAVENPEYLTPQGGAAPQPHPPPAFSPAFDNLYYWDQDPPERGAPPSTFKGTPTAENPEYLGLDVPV
T3 sequence (P00533 25-1210): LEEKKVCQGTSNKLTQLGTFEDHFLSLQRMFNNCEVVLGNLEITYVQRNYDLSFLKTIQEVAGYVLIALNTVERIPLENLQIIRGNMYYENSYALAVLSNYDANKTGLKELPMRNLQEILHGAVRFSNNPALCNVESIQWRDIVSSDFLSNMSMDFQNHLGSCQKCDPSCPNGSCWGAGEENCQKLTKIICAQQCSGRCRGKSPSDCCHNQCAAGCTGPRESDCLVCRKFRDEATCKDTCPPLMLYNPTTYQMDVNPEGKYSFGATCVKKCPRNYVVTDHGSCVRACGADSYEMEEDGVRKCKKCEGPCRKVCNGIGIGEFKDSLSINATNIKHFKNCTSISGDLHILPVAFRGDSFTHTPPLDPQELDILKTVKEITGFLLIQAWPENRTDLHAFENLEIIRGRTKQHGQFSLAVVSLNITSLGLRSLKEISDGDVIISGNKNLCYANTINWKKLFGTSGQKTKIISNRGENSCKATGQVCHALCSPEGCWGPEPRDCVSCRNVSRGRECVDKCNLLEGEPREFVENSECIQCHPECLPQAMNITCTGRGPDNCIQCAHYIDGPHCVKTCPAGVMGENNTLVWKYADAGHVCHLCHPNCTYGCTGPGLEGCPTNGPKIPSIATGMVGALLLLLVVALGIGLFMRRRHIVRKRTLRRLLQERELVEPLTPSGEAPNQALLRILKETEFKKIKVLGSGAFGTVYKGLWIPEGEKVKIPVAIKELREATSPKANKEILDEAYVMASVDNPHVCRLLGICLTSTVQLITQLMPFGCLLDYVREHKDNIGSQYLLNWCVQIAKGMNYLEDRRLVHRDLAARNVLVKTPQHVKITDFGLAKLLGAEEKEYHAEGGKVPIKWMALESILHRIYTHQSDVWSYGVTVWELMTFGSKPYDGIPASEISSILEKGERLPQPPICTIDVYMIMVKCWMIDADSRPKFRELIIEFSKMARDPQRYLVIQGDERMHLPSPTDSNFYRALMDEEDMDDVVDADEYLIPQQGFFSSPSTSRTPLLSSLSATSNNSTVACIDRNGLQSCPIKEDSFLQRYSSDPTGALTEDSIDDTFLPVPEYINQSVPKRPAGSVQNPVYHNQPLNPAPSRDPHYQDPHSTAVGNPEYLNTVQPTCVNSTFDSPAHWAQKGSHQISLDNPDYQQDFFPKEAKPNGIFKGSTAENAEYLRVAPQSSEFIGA

As a reminder, the IC50 is the concentration that gives 50% inhibition. Consider `Cc1ccc(-n2c(SCc3ccc(Cl)cc3)nc3ccc(F)cc3c2=O)cc1` [Compound 5d, 2-(4-Chloro-benzylsulfanyl)-6-fluoro-3-(4-methylArenyl)-3H-quinazolin-4-one], for which the IC50 against HER2 is 184 ± 8 nM; on CDK2, 2100 ± 126 nM; against EGFR, 220 ± 13 nM; in assay [1] it was 1940 to 7100 nM; in the assay with MDA-MB-231 cells, 1940 ± 100 nM; in the assay on MCF-7 cells it was 2480 ± 200 nM. Also, the IC50 with HepG2 cells came to 7100 ± 600 nM; in the assay on HeLa cells, 6380 ± 400 nM. Further, the “gene expression of caspase-3, fold change” value in the assay with caspase-3 is on record as “three”. Further, the “expression of anti-apoptotic gene Bcl2, fold change” value in the assay with Bcl2 is reported as 0.4 fold. In the assay on Bax, the “gene expression of Bax, fold change” value is on record as “three”. In addition, the “gene expression of caspase-9, fold change” value in the assay on caspase-9 is given as “two”.
